Laboratory results reported in patent US9695133B2, “Quinazolinone-based oncogenic-RAS-selective lethal compounds and their use” (THE TRUSTEES OF COLUMBIA UNIVERSITY IN THE CITY OF NEW YORK, priority 2012, dated 2017).
Read-outs that look alike come from different tables or passages of the source.

Experiments:
[1] = system: BJeH, BJeHLT, BJeLR and DRD cells; assay type: cell-based; details: for RSL phenotype (oncogenic-RAS-selective lethality): four BJ-derived cell lines, with and without HRAS G12V; for Selectivity score: EC50 (BJeH)/EC50 (BJeLR)
[2] = system: HT-1080 cells; test: Cell death rescue by ALOX and COX inhibitors in HT-1080 cells; assay type: cell-based, human; details: for suppression of cell death induced by RSL compounds / suppression of cell death induced by non-RSL compounds: HT-1080 cells, 10 μM BAI or 50 μM ZIL, 24 hours; for suppression of erastin-induced cell death: inhibitor concentrations of Table 2
Procedure: HT-1080 cells were seeded in 384-well plates, treated with the indicated amount of compounds with or without 10 μM of BAI or 50 μM of ZIL for 24 hours. The percent growth inhibition was determined using alamar blue.
Lethal compounds were added to HT-1080 cells in the presence or absence of ALOX or COX inhibitors in a 2-fold dilution series. The concentrations of the inhibitors are listed along with vendor information in Table 2. Cell viability was determined using alamar blue and percent growth inhibition calculated as described above.

[3] = system: BJeLR cells; test: RSL testing: growth inhibition (alamar blue) in BJeLR cells; assay type: cell-based; details: Homo sapiens
Procedure: Cell viability was determined using alamar blue and percent growth inhibition computed as described previously (Id.).

[4] = system: GPX4; test: GPX4 knockdown (siGPX4) in HT-1080 cells
[5] = system: GFP-ALOX5; test: GFP-ALOX5 translocation in HT-1080 cells; assay type: cell-based, human
Procedure: HT-1080 cells stably expressing GFPALOX5 were treated with the indicated compounds under the conditions detailed in FIG. 13b. […] Note that digioxin (DIG) did translocate GFP-ALOX5 to the perinuclear membrane region in a small portion of the cell population (arrow). Digioxin is known to increase cellular calcium concentration that can translocate GFP-ALOX5, similarly to ionomycin. Scale bars, 60 μm.
(§1) A cDNA of ALOX5 (GeneBank ID: BC130332.1) was cloned into a pBabe-puro vector to express GFP fused ALOX5 (N-terminal GFP fusion) in cells. The plasmid was transfected into PLAT-GP cells (Cell Biolabs Inc., cat # RV-103, San Diego, Calif.) along with a pVSV-G helper plasmid to produce retrovirus harboring the expression plasmid. 0.2 million target cells (BJeH, BJeHLT, BJeLR or HT-1080 cells) were seeded in 10 cm tissue culture dishes and incubated in the tissue culture incubator for 1 day. A frozen stock of retrovirus solution was thawed at 37° C. for 2 minutes, and polybrene (Sigma, cat. # H9268) was added at a final concentration of 8 μg/mL. Culture medium was replaced with virus/polybrene mix and the culture dish was incubated for two hours with rocking every 30 minutes. After 2 hours, 10 mL of growth media was added to culture dish, and the culture was incubated further for 2 days. Cell lines stably expressing GFP-ALOX5 protein were selected using 1.5 μg/mL puromycin and used for the GFP-ALOX5 translocation assay.
Next, GFP-ALOX5-expressing HT-1080 cells were treated with these non-RSL and RSL compounds and changes in the location of GFP-ALOX5 were monitored as a measure of ALOX protein activation. […] Digoxin is known to elevate intracellular calcium (McGarry et al., 1993), which is likely to cause the translocation of GFP-ALOX5, similar to ionomycin. Note that ionomycin and digoxin are not RSL compounds and induce translocation of GFP-ALOX5 non-specifically in the BJ-derived cell lines (FIGS. 7 and 13). The results highlight the importance of selective ALOX activation for the induction of the RSL phenotype.

[6] = system: HT-1080 cells; details: 24 hours
[7] = system: U-2 OS cells; test: U-2 OS cell viability (alamar blue) with TBHP or NAC; assay type: cell-based
[8] = system: GFP-ALOX5; test: GFP-ALOX5 translocation in BJ-derived cell lines; assay type: cell-based, human
Procedure: as §1
ALOX5 is one of the six human ALOX genes and plays a critical role in leukotriene synthesis. In the basal state, the ALOX5 protein remains in the nucleus; however, upon activation, it translocates to the nuclear membrane (Chen et al., 2001). […] Second, calcium chelators were not effective in suppressing erastin-induced cell death (Wolpaw et al., 2011).

[9] = cell line not in head, footnote names EC50 (BJeLR), read-out: EC50

Molecule: CC(C)Oc1ccc(C=O)cc1-n1c(CN2CCN(C(=O)COc3ccc(Cl)cc3)CC2)nc2ccccc2c1=O [AE, 3-(2-((4-(2-(4-chlorophenoxy)ethanoyl)piperazin-1-yl)methyl)-4-oxoquinazolin-3(4H)-yl)-4-isopropoxybenzaldehyde]
- RSL phenotype (oncogenic-RAS-selective lethality) [1]: retained the RSL phenotype

Molecule: Nc1nc[nH]n1 [ATZ]
- RSL phenotype (oncogenic-RAS-selective lethality) [1]: none of the other anti-oxidant targeting compounds displayed an RSL phenotype

Molecule: O=c1cc(-c2ccccc2)oc2cc(O)c(O)c(O)c12 [BAI, Baicalein]
- suppression of cell death induced by RSL compounds [2]: strongly suppressed cell death induced by all RSL compounds
- suppression of cell death induced by non-RSL compounds [2]: not able to suppress cell death induced by eleven non-RSL compounds
- suppression of erastin-induced cell death [2]: strongly suppressed erastin-induced cell death

Molecule: N#CC(=Cc1ccc(O)c(O)c1)C(=O)OCC=Cc1ccccc1 [CDC, cinnamyl-3,4-dihydroxy-a-cyanocinnamate]
- suppression of erastin-induced cell death [2]: strongly suppressed erastin-induced cell death

Molecule: CCN(CC)Cc1ccc(OC(C)C)c(-n2c(CN3CCN(C(=O)COc4ccc(Cl)cc4)CC3)nc3ccccc3c2=O)c1 [Compound 15]
- EC50 ([3]; BJeLR, read-out: EC50 (BJeLR)): 1.68 µM
- Selectivity score [1]: 4.1

Molecule: CC(C)Oc1ccc(N2CCN(C)CC2)cc1-n1c(CN2CCN(C(=O)COc3ccc(Cl)cc3)CC2)nc2ccccc2c1=O [Compound 17]
- EC50 ([3]; BJeLR, read-out: EC50 (BJeLR)): 0.9 µM
- Selectivity score [1]: 7.3

Molecule: COCCN(CCOC)Cc1ccc(OC(C)C)c(-n2c(CN3CCN(C(=O)COc4ccc(Cl)cc4)CC3)nc3ccccc3c2=O)c1 [Compound 18]
- EC50 ([3]; BJeLR, read-out: EC50 (BJeLR)): 0.14 µM
- Selectivity score [1]: 5.9

Molecule: CC(C)Oc1ccc(CN(C)CCC#N)cc1-n1c(CN2CCN(C(=O)COc3ccc(Cl)cc3)CC2)nc2ccccc2c1=O [Compound 19]
- EC50 ([3]; BJeLR, read-out: EC50 (BJeLR)): 0.26 µM
- Selectivity score [1]: 5.1

Molecule: CC(C)Oc1ccc(CN(C)CCO)cc1-n1c(CN2CCN(C(=O)COc3ccc(Cl)cc3)CC2)nc2ccccc2c1=O [Compound 21]
- EC50 ([3]; BJeLR, read-out: EC50 (BJeLR)): 0.36 µM
- Selectivity score [1]: 3.7

Molecule: CC(C)Oc1ccc(CNCCCN(C)C)cc1-n1c(CN2CCN(C(=O)COc3ccc(Cl)cc3)CC2)nc2ccccc2c1=O [Compound 22]
- EC50 ([3]; BJeLR, read-out: EC50 (BJeLR)): 2.3 µM
- Selectivity score [1]: 3.3

Molecule: CC(C)Oc1ccc(CN2CCN(CCO)CC2)cc1-n1c(CN2CCN(C(=O)COc3ccc(Cl)cc3)CC2)nc2ccccc2c1=O [Compound 23]
- EC50 ([3]; BJeLR, read-out: EC50 (BJeLR)): 1.2 µM
- Selectivity score [1]: 2.8

Molecule: CC(C)Oc1ccc(CNCCOCCO)cc1-n1c(CN2CCN(C(=O)COc3ccc(Cl)cc3)CC2)nc2ccccc2c1=O [Compound 24]
- EC50 ([3]; BJeLR, read-out: EC50 (BJeLR)): 2.1 µM
- Selectivity score [1]: 2.5

Molecule: CC(C)Oc1ccc(CN2CCOCC2)cc1-n1c(CN2CCN(C(=O)COc3ccc(Cl)cc3)CC2)nc2ccccc2c1=O [Compound 40, 2-((4-(2-(4-chlorophenoxy)ethanoyl)piperazin-1-yl)methyl)-3-(2-isopropoxy-5-(morpholinomethyl)phenyl)quinazolin-4(3H)-one]
- EC50 ([3]; BJeLR, read-out: EC50 (BJeLR)): 0.13 µM
- EC50 [3, 9]: 0.13 µM

Molecule: CC(C)Oc1c(CN2CCOCC2)cccc1-n1c(CN2CCN(C(=O)COc3ccc(Cl)cc3)CC2)nc2ccccc2c1=O [Compound 51]
- EC50 [3, 9]: 1.17 µM

Molecule: N#CC(=C(/N)Sc1ccccc1N)/C(C#N)=C(\N)Sc1ccccc1N [Compound U0126]
- rescue of siGPX4-induced cell death [4]: rescued

Molecule: O=[N+]([O-])c1ccc(Cl)c(Cl)c1 [DCNB]
- RSL phenotype (oncogenic-RAS-selective lethality) [1]: none of the other anti-oxidant targeting compounds displayed an RSL phenotype

Molecule: CCN(CC)C(=S)S [DETC]
- RSL phenotype (oncogenic-RAS-selective lethality) [1]: none of the other anti-oxidant targeting compounds displayed an RSL phenotype

Molecule: CN(C)C(=O)/N=N/C(=O)N(C)C [DIA]
- RSL phenotype (oncogenic-RAS-selective lethality) [1]: none of the other anti-oxidant targeting compounds displayed an RSL phenotype

Molecule: CCc1ccc(/C=C2\SC(=S)N(CCC(=O)NCCCN3CCOCC3)C2=O)cc1 [DPI2]
- GFP-ALOX5 translocation to the nuclear membrane [5]: translocated GFP-ALOX5 to the nuclear membrane

Molecule: CC(C)c1onc(C(=O)N2CCN(C(c3ccccc3)c3ccccc3)CC2)c1[N+](=O)[O-] [DPI10]
- GFP-ALOX5 translocation to the nuclear membrane [5]: translocated GFP-ALOX5 to the nuclear membrane

Molecule: Nc1nc(CCl)nc(Nc2ccc3ccccc3c2)n1 [DPI17]
- GFP-ALOX5 translocation to the nuclear membrane [5]: translocated GFP-ALOX5 to the nuclear membrane

Molecule: N[C@@H](CCC(=O)N[C@@H](CS)C(=O)NCC(=O)O)C(=O)O [GSH, reduced glutathione]
- rescue from erastin lethality by GSH supplementation ([6]; 1 mM GSH): rescued cells from erastin lethality

Molecule: COc1ccc2c(c1)c(CC(=O)O)c(C)n2C(=O)c1ccc(Cl)cc1 [Indomethacin]
- suppression of erastin-induced cell death [2]: only minimally effective in suppressing erastin lethality

Molecule: CC(=O)N[C@@H](CS)C(=O)O [NAC, N-acetyl-cysteine]
- rescue from erastin lethality by NAC supplementation [7]: rescued cells from erastin lethality

Molecule: c1ccc2c(c1)SCc1c-2[nH]c2ccccc12 [PD-146176]
- suppression of erastin-induced cell death [2]: strongly suppressed erastin-induced cell death

Molecule: CC(C)Oc1ccncc1-n1c(CN2CCN(C(=O)COc3ccc(Cl)cc3)CC2)nc2ccccc2c1=O [PYR, 2-((4-(2-(4-chlorophenoxy)ethanoyl)piperazin-1-yl)methyl)-3-(4-isopropoxypyridin-3-yl)quinazolin-4(3H)-one]
- RSL phenotype (oncogenic-RAS-selective lethality) [1]: did not display lethality

Molecule: CN[C@@H]1C[C@H]2O[C@@](C)([C@@H]1OC)n1c3ccccc3c3c4c(c5c6ccccc6n2c5c31)C(=O)NC4 [STS, Staurosporine]
- GFP-ALOX5 translocation to the nuclear membrane [5]: did not

Molecule: CC(c1cc2ccccc2s1)N(O)C(N)=O (stereo not drawn) [Zileuton]
- suppression of cell death induced by RSL compounds [2]: strongly suppressed cell death induced by all RSL compounds
- suppression of cell death induced by non-RSL compounds [2]: not able to suppress cell death induced by eleven non-RSL compounds
- suppression of erastin-induced cell death [2]: strongly suppressed erastin-induced cell death
- rescue of siGPX4-induced cell death ([4]; 10 μM U0126, 100 μM Vit. E, 100 μM DFOM, 50 μM ZIL): rescued

Molecule: CC(C)Oc1ccccc1-n1c(CN2CCN(C(=O)c3ccc(Cl)cc3)CC2)nc2ccccc2c1=O [dMK, 2-((4-(4-chlorophenylcarbonyl)piperazin-1-yl)methyl)-3-(2-isopropoxyphenyl)quinazolin-4(3H)-one]
- RSL phenotype (oncogenic-RAS-selective lethality) [1]: did not display lethality

Molecule: C[C@H]1O[C@@H](O[C@H]2[C@@H](O)C[C@H](O[C@H]3[C@@H](O)C[C@H](O[C@H]4CC[C@@]5(C)[C@H](CC[C@@H]6[C@@H]5C[C@@H](O)[C@]5(C)[C@@H](C7=CC(=O)OC7)CC[C@]65O)C4)O[C@@H]3C)O[C@@H]2C)C[C@H](O)[C@@H]1O [digoxin, Digoxin]
- GFP-ALOX5 translocation to the nuclear membrane [5]: induced GFP-ALOX5 translocation

Molecule: C[C@H](CCC(=O)O)C[C@H](C)C[C@H](C)C(=O)/C=C(\O)[C@H](C)C[C@H](C)C/C=C/[C@@H](C)[C@@H](O)[C@@H](C)[C@@H](O)C[C@@H]1CC[C@@](C)([C@H]2CC[C@@](C)([C@@H](C)O)O2)O1 [ionomycin]
- GFP-ALOX5 translocation to the nuclear membrane [8]: induced localization of GFP-ALOX5 to the nuclear membrane in all BJ-derived cell lines

Molecule: Vitamin E [Vit. E]
- rescue of siGPX4-induced cell death [4]: rescued

Molecule: lysophosphatidyl choline [lyso-PC]
- differential cytotoxicity between BJeH and BJeLR ([1]; lyso-PC alone, 24 hours): did not show differential cytotoxicity
- effect of lyso-PC on erastin-induced cell death [6]: modestly sensitized cells to erastin-induced cell death
